Assays:
[1] = tested on: histone modifications in 2102EP cells; experiment: Mass spectrometry analysis of histone modifications (Mod Spec); type: cell-based, Human
Outline: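 2102EP cells were treated for 16 h with EC50 concentrations of Quisinostat, JIB-04, Chaetocin, MZ-1, LP99, PRT4165 or GSK343, with DMSO as solvent control. After trypsin harvest, histones were extracted and analysed by mass spectrometry. Raw data were converted to z-scores.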

[2] = tested on: DNA methylation (5mC, 5hmC) in 2102EP cells; experiment: DNA slot blot (5mC, 5hmC); type: cell-based, Human; settings: 24 h
Protocol: Purity of DNA was verified using NanoDrop 260/280 ratio and agarose gel electrophoresis. DNA was diluted in H2O to 200 ng, 100 ng and 50 ng in 200 µl per slot. Slot-Blotter device (Carl Roth GmbH + Co KG, Karlsruhe, Germany) was assembled as according to the manual. DNA was blotted onto a positively charged nylon membrane (Carl Roth GmbH + Co KG, Karlsruhe, Germany) using vacuum application. Three identical membranes were prepared. The membranes were air-dried for 15—20 min and UV-crosslinked (20 s (s), 1200 mJ/cm^2). One membrane was stained with methylene blue (0.02% methylene blue (Merck Millipore, Darmstadt, Germany) in 0.3 M sodium acetate (pH 5.2)) to validate DNA loading across the samples. The remaining two membranes were blocked in 5% milk powder in PBST for 1 h at RT. Membranes were incubated with 5mC or 5hmC antibody overnight at 4 °C. After washing, membranes were incubated with secondary antibody for 2 h at RT. Signals were detected using the ChemiDoc Imaging Systems (Bio-Rad Laboratories, Feldkirchen, Germany).

[3] = 2102EP cells, Mod Spec raw data
[4] = 2102EP, EC50, 16 h, vs solvent control

Compound: O=C1C(=Cc2cccnc2)C(=O)c2ccccc21 [PRT4165]
- H1.4: K25AC, % of peptide pool [1, 3]: 0.05173%
- H1.4: K25ME1, % of peptide pool [1, 3]: 2.298%
- H1.4: K25ME2, % of peptide pool [1, 3]: 0.1042%
- H1.4: K25ME3, % of peptide pool [1, 3]: 0.02395%
- H1.4: K25UN, % of peptide pool [1, 3]: 97.522%
- H2A1: K13AC, % of peptide pool [1, 3]: 0.008344%
- H2A1: K13UN, % of peptide pool [1, 3]: 99.9917%
- H2A1: K15AC, % of peptide pool [1, 3]: 0.002728%
- H2A1: K15UB, % of peptide pool [1, 3]: 0%
- H2A1: K15UN, % of peptide pool [1, 3]: 99.9973%
- H2A3: K13AC, % of peptide pool [1, 3]: 0.03698%
- H2A3: K13UN, % of peptide pool [1, 3]: 99.963%
- H2A3: K15AC, % of peptide pool [1, 3]: 0.08285%
- H2A3: K15UB, % of peptide pool [1, 3]: 0%
- H2A3: K15UN, % of peptide pool [1, 3]: 99.9171%
- H2A: K5AC, % of peptide pool [1, 3]: 15.4182%
- H2A: K5UN, % of peptide pool [1, 3]: 84.5818%
- H2A: K9AC, % of peptide pool [1, 3]: 1.95%
- H2A: K9UN, % of peptide pool [1, 3]: 98.0496%
- H2A: K36AC, % of peptide pool [1, 3]: 0.05592%
- H2A: K36UN, % of peptide pool [1, 3]: 99.9441%
- H3: K9AC, % of peptide pool [1, 3]: 0.7791%
- H3: K9ME1, % of peptide pool [1, 3]: 33.7783%
- H3: K9ME2, % of peptide pool [1, 3]: 30.8531%
- H3: K9ME3, % of peptide pool [1, 3]: 3.071%
- H3: K9UN, % of peptide pool [1, 3]: 31.5183%
- H3: K14AC, % of peptide pool [1, 3]: 32.0961%
- H3: K14UN, % of peptide pool [1, 3]: 67.9039%
- H3: K18AC, % of peptide pool [1, 3]: 12.9985%
- H3: K18ME1, % of peptide pool [1, 3]: 0.1614%
- H3: K18UN, % of peptide pool [1, 3]: 86.8401%
- H3: K23AC, % of peptide pool [1, 3]: 19.4498%
- H3: K23ME1, % of peptide pool [1, 3]: 0.05975%
- H3: K23UN, % of peptide pool [1, 3]: 80.4904%
- H3: K56AC, % of peptide pool [1, 3]: 0.4117%
- H3: K56ME1, % of peptide pool [1, 3]: 1.0746%
- H3: K56UN, % of peptide pool [1, 3]: 98.5137%
- H3: K64AC, % of peptide pool [1, 3]: 0.02258%
- H3: K64UN, % of peptide pool [1, 3]: 99.9774%
- H3: K79AC, % of peptide pool [1, 3]: 3.311%
- H3: K79ME1, % of peptide pool [1, 3]: 23.508%
- H3: K79ME2, % of peptide pool [1, 3]: 7.992%
- H3: K79ME3, % of peptide pool [1, 3]: 11.4561%
- H3: K79UN, % of peptide pool [1, 3]: 53.7325%
- H3: K122AC, % of peptide pool [1, 3]: 0.1739%
- H3: K122UN, % of peptide pool [1, 3]: 99.8261%
- H3: Q19ME1, % of peptide pool [1, 3]: 0.01555%
- H3: Q19UN, % of peptide pool [1, 3]: 99.9844%
- H3: Q55ME1, % of peptide pool [1, 3]: 0.5287%
- H3: Q55UN, % of peptide pool [1, 3]: 99.4713%
- H3: R42ME2, % of peptide pool [1, 3]: 2.978%
- H3: R42UN, % of peptide pool [1, 3]: 97.0223%
- H3: R49ME2, % of peptide pool [1, 3]: 9.973%
- H3: R49UN, % of peptide pool [1, 3]: 90.0271%
- H3R2UN: K4AC, % of peptide pool [1, 3]: 0.1986%
- H3R2UN: K4ME1, % of peptide pool [1, 3]: 18.1935%
- H3R2UN: K4ME2, % of peptide pool [1, 3]: 0.2356%
- H3R2UN: K4ME3, % of peptide pool [1, 3]: 0.09008%
- H3R2UN: K4UN, % of peptide pool [1, 3]: 81.2822%
- H3R2UN: Q5ME1, % of peptide pool [1, 3]: 0.1103%
- H3R2UN: Q5UN, % of peptide pool [1, 3]: 99.8897%
- H3.1: K27AC, % of peptide pool [1, 3]: 2.4319%
- H3.1: K27ME1, % of peptide pool [1, 3]: 48.1679%
- H3.1: K27ME2, % of peptide pool [1, 3]: 21.916%
- H3.1: K27ME3, % of peptide pool [1, 3]: 3.429%
- H3.1: K27UN, % of peptide pool [1, 3]: 24.0551%
- H3.1: K36AC, % of peptide pool [1, 3]: 0.4356%
- H3.1: K36ME1, % of peptide pool [1, 3]: 14.9062%
- H3.1: K36ME2, % of peptide pool [1, 3]: 45.0841%
- H3.1: K36ME3, % of peptide pool [1, 3]: 22.3724%
- H3.1: K36UN, % of peptide pool [1, 3]: 17.2016%
- H3.3: K27AC, % of peptide pool [1, 3]: 6.482%
- H3.3: K27M, % of peptide pool [1, 3]: 0%
- H3.3: K27ME1, % of peptide pool [1, 3]: 46.8114%
- H3.3: K27ME2, % of peptide pool [1, 3]: 16.0905%
- H3.3: K27ME3, % of peptide pool [1, 3]: 6.139%
- H3.3: K27UN, % of peptide pool [1, 3]: 24.4778%
- H3.3: K36AC, % of peptide pool [1, 3]: 3.39%
- H3.3: K36ME1, % of peptide pool [1, 3]: 13.3786%
- H3.3: K36ME2, % of peptide pool [1, 3]: 45.5834%
- H3.3: K36ME3, % of peptide pool [1, 3]: 23.7392%
- H3.3: K36UN, % of peptide pool [1, 3]: 13.9089%
- H4: K5AC, % of peptide pool [1, 3]: 8.039%
- H4: K5UN, % of peptide pool [1, 3]: 91.9614%
- H4: K8AC, % of peptide pool [1, 3]: 12.3075%
- H4: K8UN, % of peptide pool [1, 3]: 87.6925%
- H4: K12AC, % of peptide pool ([1]; 2102EP cells, Mod Spec raw data, histone H4 K12 acetylated): 6.955 % of peptide pool
- H4: K12UN, % of peptide pool ([1]; 2102EP cells, Mod Spec raw data, histone H4 K12 unmodified): 93.045 % of peptide pool
- H4: K16AC, % of peptide pool ([1]; 2102EP cells, Mod Spec raw data, histone H4 K16 acetylated): 45.5782 % of peptide pool
- H4: K16UN, % of peptide pool ([1]; 2102EP cells, Mod Spec raw data, histone H4 K16 unmodified): 54.4218 % of peptide pool
- H4: K20AC, % of peptide pool ([1]; 2102EP cells, Mod Spec raw data, histone H4 K20 acetylated): 32.1833 % of peptide pool
- H4: K20ME2, % of peptide pool ([1]; 2102EP cells, Mod Spec raw data, histone H4 K20 dimethylated): 44.5336 % of peptide pool
- H4: K20ME1, % of peptide pool ([1]; 2102EP cells, Mod Spec raw data, histone H4 K20 monomethylated): 4.33 % of peptide pool
- H4: K20ME3, % of peptide pool ([1]; 2102EP cells, Mod Spec raw data, histone H4 K20 trimethylated): 2.102 % of peptide pool
- H4: K20UN, % of peptide pool ([1]; 2102EP cells, Mod Spec raw data, histone H4 K20 unmodified): 16.8517 % of peptide pool
- change of histone modifications of the expected mode of action (Mod Spec) [1, 4]: decreased ubiquitination (ub) of the target histone H2AK119 [50] could not be detected
- off-target changes of histone modifications (Mod Spec) [1, 4]: increase of H3K36me3, H4K20ac, H3K79me1/ac
- 5hmC levels increase compared to solvent control [2]: 25%
- 5mC levels compared to solvent control ([2]; solvent control set to 100%): 84%

Source: PMC8742467, “Therapeutical interference with the epigenetic landscape of germ cell tumors: a comparative drug study and new mechanistical insights” (Clinical Epigenetics, 2022)
